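Compound exposure: 48 hours, 5 concentrations, 96-well plates. Definition used: TGI = concentration required for complete inhibition of growth.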
Key:
Test in all cases: NCI anticancer screen, dose series, 48 h
CAKI-1 renal = test system: CAKI-1 renal
SNB-19 CNS = test system: SNB-19 CNS
PC-3 prostate = test system: PC-3 prostate
DU-145 prostate = test system: DU-145 prostate
HCC-2998 colon = test system: HCC-2998 colon
UACC-62 melanoma = test system: UACC-62 melanoma
HOP-62 NSCLC = test system: HOP-62 NSCLC
SK-MEL-28 melanoma = test system: SK-MEL-28 melanoma
NCI-H226 lung = test system: NCI-H226 lung
NCI-H522 lung = test system: NCI-H522 lung
HOP-92 NSCLC = test system: HOP-92 NSCLC
A549 NSCLC = test system: A549 NSCLC
SF-539 CNS = test system: SF-539 CNS
SK-MEL-5 melanoma = test system: SK-MEL-5 melanoma
COLO 205 colon = test system: COLO 205 colon
SR leukemia = test system: SR leukemia
CCRF-CEM leukemia = test system: CCRF-CEM leukemia
MCF7 breast = test system: MCF7 breast
SN12C renal = test system: SN12C renal
786-0 renal = test system: 786-0 renal
HT29 colon = test system: HT29 colon
RXF 393 renal = test system: RXF 393 renal
HCT-116 colon = test system: HCT-116 colon
UO-31 renal = test system: UO-31 renal
K-562 leukemia = test system: K-562 leukemia
BT-549 breast = test system: BT-549 breast
UACC-257 melanoma = test system: UACC-257 melanoma
U251 CNS = test system: U251 CNS
IGROV1 ovarian = test system: IGROV1 ovarian
HS 578T breast = test system: HS 578T breast
ACHN renal = test system: ACHN renal
SW-620 colon = test system: SW-620 colon
HCT-15 colon = test system: HCT-15 colon
MOLT-4 leukemia = test system: MOLT-4 leukemia
MALME-3M melanoma = test system: MALME-3M melanoma
OVCAR-5 ovarian = test system: OVCAR-5 ovarian
SF-295 CNS = test system: SF-295 CNS
EKVX NSCLC = test system: EKVX NSCLC
T-47D breast = test system: T-47D breast
MDA-MB-435 = test system: MDA-MB-435
NCI-H460 lung = test system: NCI-H460 lung
OVCAR-3 ovarian = test system: OVCAR-3 ovarian
KM12 colon = test system: KM12 colon
SNB-75 CNS = test system: SNB-75 CNS
SF-268 CNS = test system: SF-268 CNS
NCI-H23 lung = test system: NCI-H23 lung
TK-10 renal = test system: TK-10 renal
OVCAR-4 ovarian = test system: OVCAR-4 ovarian
A498 renal = test system: A498 renal
SK-MEL-2 melanoma = test system: SK-MEL-2 melanoma
NCI/ADR-RES ovarian = test system: NCI/ADR-RES ovarian
SK-OV-3 ovarian = test system: SK-OV-3 ovarian
MDA-MB-231 breast = test system: MDA-MB-231 breast
RPMI-8226 leukemia = test system: RPMI-8226 leukemia
M14 melanoma = test system: M14 melanoma
MDA-N = test system: MDA-N
HL-60(TB) leukemia = test system: HL-60(TB) leukemia
LOX IMVI melanoma = test system: LOX IMVI melanoma
OVCAR-8 ovarian = test system: OVCAR-8 ovarian

**Q.** What does the source list for `COc1cc2c(SCCN(C)C)nc3ccccc3c2c2ccccc12`?
**A.** TGI (CAKI-1 renal): 3.87 µM; TGI (SNB-19 CNS): 8.14 µM; TGI (PC-3 prostate): 8.24 µM; TGI (DU-145 prostate): 15.8 µM; TGI (HCC-2998 colon): 2.88 µM; TGI (UACC-62 melanoma): 3.12 µM; TGI (HOP-62 NSCLC): 2.81 µM; TGI (SK-MEL-28 melanoma): 3.17 µM; TGI (NCI-H226 lung): 8.12 µM; TGI (NCI-H522 lung): 2.79 µM; TGI (HOP-92 NSCLC): 5.83 µM; TGI (A549 NSCLC): 3.08 µM; TGI (SF-539 CNS): 3.61 µM; TGI (SK-MEL-5 melanoma): 3.08 µM; TGI (COLO 205 colon): 3.75 µM; TGI (SR leukemia): 4.42 µM; TGI (CCRF-CEM leukemia): 4.56 µM; TGI (MCF7 breast): 3.02 µM; TGI (SN12C renal): 6.41 µM; TGI (786-0 renal): 3.76 µM; TGI (HT29 colon): > 100 µM; TGI (RXF 393 renal): 4.29 µM; TGI (HCT-116 colon): 2.83 µM; TGI (UO-31 renal): 8.09 µM; TGI (K-562 leukemia): > 100 µM; TGI (BT-549 breast): 21.7 µM; TGI (UACC-257 melanoma): 3.38 µM; TGI (U251 CNS): 4.32 µM; TGI (IGROV1 ovarian): 2.77 µM; TGI (HS 578T breast): 8.61 µM; TGI (ACHN renal): 3.64 µM; TGI (SW-620 colon): 3.64 µM; TGI (HCT-15 colon): 3.31 µM; TGI (MOLT-4 leukemia): 8.14 µM; TGI (MALME-3M melanoma): 3.99 µM; TGI (OVCAR-5 ovarian): 4.03 µM; TGI (SF-295 CNS): 3.45 µM; TGI (EKVX NSCLC): 4.08 µM; TGI (T-47D breast): 7.66 µM; TGI (MDA-MB-435): 3.3 µM; TGI (NCI-H460 lung): 3.33 µM; TGI (OVCAR-3 ovarian): 7.79 µM; TGI (KM12 colon): 2.69 µM; TGI (SNB-75 CNS): 8.32 µM; TGI (SF-268 CNS): 5.39 µM; TGI (NCI-H23 lung): 15 µM; TGI (TK-10 renal): 7.23 µM; TGI (OVCAR-4 ovarian): 9.22 µM; TGI (A498 renal): 35.8 µM; TGI (SK-MEL-2 melanoma): 4.03 µM; TGI (NCI/ADR-RES ovarian): 16.5 µM; TGI (SK-OV-3 ovarian): 25.6 µM; TGI (MDA-MB-231 breast): 5.52 µM; TGI (RPMI-8226 leukemia): 4.23 µM; TGI (M14 melanoma): 3.46 µM; TGI (MDA-N): 4.87 µM

**Q.** Which results are given for `Cc1[nH]c(N)nc(=S)c1CCCNc1ccccc1`?
**A.** TGI (CAKI-1 renal): > 100 µM; TGI (SNB-19 CNS): > 100 µM; TGI (PC-3 prostate): > 100 µM; TGI (DU-145 prostate): > 100 µM; TGI (HL-60(TB) leukemia): > 100 µM; TGI (LOX IMVI melanoma): > 100 µM; TGI (UACC-62 melanoma): > 100 µM; TGI (OVCAR-8 ovarian): > 100 µM; TGI (HOP-62 NSCLC): > 100 µM; TGI (SK-MEL-28 melanoma): > 100 µM; TGI (NCI-H226 lung): > 100 µM; TGI (NCI-H522 lung): > 100 µM; TGI (HOP-92 NSCLC): > 100 µM; TGI (A549 NSCLC): > 100 µM; TGI (SF-539 CNS): > 100 µM; TGI (SK-MEL-5 melanoma): 80 µM; TGI (COLO 205 colon): 66.9 µM; TGI (SR leukemia): 96.9 µM; TGI (CCRF-CEM leukemia): > 100 µM; TGI (MCF7 breast): > 100 µM; TGI (SN12C renal): > 100 µM; TGI (786-0 renal): > 100 µM; TGI (HT29 colon): > 100 µM; TGI (RXF 393 renal): > 100 µM; TGI (HCT-116 colon): > 100 µM; TGI (UO-31 renal): > 100 µM; TGI (K-562 leukemia): > 100 µM; TGI (BT-549 breast): > 100 µM; TGI (UACC-257 melanoma): > 100 µM; TGI (U251 CNS): > 100 µM; TGI (IGROV1 ovarian): > 100 µM; TGI (HS 578T breast): > 100 µM; TGI (ACHN renal): > 100 µM; TGI (SW-620 colon): > 100 µM; TGI (HCT-15 colon): > 100 µM; TGI (MOLT-4 leukemia): 21.1 µM; TGI (MALME-3M melanoma): 99 µM; TGI (OVCAR-5 ovarian): > 100 µM; TGI (SF-295 CNS): > 100 µM; TGI (EKVX NSCLC): > 100 µM; TGI (T-47D breast): > 100 µM; TGI (MDA-MB-435): > 100 µM; TGI (NCI-H460 lung): > 100 µM; TGI (OVCAR-3 ovarian): > 100 µM; TGI (KM12 colon): > 100 µM; TGI (SNB-75 CNS): > 100 µM; TGI (SF-268 CNS): > 100 µM; TGI (NCI-H23 lung): > 100 µM; TGI (TK-10 renal): > 100 µM; TGI (OVCAR-4 ovarian): > 100 µM; TGI (A498 renal): 92.4 µM; TGI (SK-MEL-2 melanoma): > 100 µM; TGI (NCI/ADR-RES ovarian): > 100 µM; TGI (SK-OV-3 ovarian): > 100 µM; TGI (MDA-MB-231 breast): > 100 µM; TGI (RPMI-8226 leukemia): > 100 µM; TGI (M14 melanoma): > 100 µM; TGI (MDA-N): > 100 µM
